Laboratory results published in patent US7049311B1, “Pyrrolbenzodiazepines” (Spirogen Limited, priority 1998, dated 2006).
Where two headings read alike, the source gives them in different places.

How the values were obtained:
[1] = test system: A2780cisR; test: Ovarian carcinoma cytotoxicity assay; assay type: cell-based, human
Method: (§1) Compounds of the invention (and Anthramycin as a comparison) were evaluated for their cytotoxic activity in ovarian cell lines by Dr Lloyd R. Kelland's group at The Institute of Cancer Research, Sutton, UK. The five cell lines investigated were SKOV-3, A2780/A2780cisR and CH1/CH1cisR (cis R denotes that the cell line is resistant to cisplatin).
(§2) Single viable cells were seeded in growth medium (160 μL) in […] microtitre plates and allowed to attach overnight. […] After 96 hours, the medium was removed and the remaining cells fixed by exposure to 10% trichloroacetic acid on ice for 30 minutes. The wells were then washed 3-4 times with tap water, air dried overnight and treated with 100 μL of sulphorhodamine B (0.4%) dissolved in 1% acetic acid. Staining was allowed to continue for 10-15 minutes, then the wells were washed 3-4 times with 1% acetic acid, air dried and then added to Tris base (100 μL of 10 mM). Plates were then shaken and absorbance readings at 540 nm were determined using a plate reader. By using the Quattro-Pro software package, the IC50 values were calculated from plots of concentration versus percentage absorbance (compared with 8 untreated wells).

[2] = test system: A2780; test: Ovarian carcinoma cytotoxicity assay; assay type: cell-based, human
Method: as §1, §2

[3] = test system: CH1cisR; test: Ovarian carcinoma cytotoxicity assay; assay type: cell-based
Method: as §1, §2

[4] = test system: CH1; test: Ovarian carcinoma cytotoxicity assay; assay type: cell-based
Method: as §1, §2

[5] = test system: SKOV-3; test: Ovarian carcinoma cytotoxicity assay; assay type: cell-based
Method: as §1, §2

[6] = test system: calf thymus DNA; test: DNA helix melting temperature assay; assay type: binding; conditions: [PBD]:[DNA] ratio of 1:5, calf thymus DNA
Method: The first assay, which is described in G. B. Jones, et al., Anti-Cancer Drug Des., 1990, 5, 249, which is incorporated herein by reference, determines the effect of the test compound on the helix melting temperature of DNA. This assay is designed to give an indication of the strength and extent of cross-linking of the DNA strands by the test compound (i.e. a measure of the stabilisation of the DNA upon ligand binding).
The melting temperature was determined for a 1:5 molar ratio of [ligand] [DNA], where the calf thymus DNA concentration is […] in aqueous sodium phosphate buffer (10 mM sodium phosphate+1 mM EDTA, pH 7.00±0.01). For calf thymus DNA at pH 7.00±0.01, the melting temperature is 67.83±0.06° C. (mean value from 30 separate determinations).

[7] = test system: NCI-H522; test: NCI in vitro cytotoxicity screen; assay type: cell-based; conditions: Homo sapiens, NCI-H522, 48 h, read-out: LC50
Method: (§3) The National Cancer Institute (NCI), Bethesda, Md., USA has available an in vitro cytotoxicity screen which consists of approximately 60 human tumour cell lines against which compounds are tested at a minimum of five concentrations each differing 10-fold. A 48 hour continuous exposure protocol is used, where cell viability or growth is estimated with an SRB protein assay.
(§4) The test compounds were evaluated against approximately 60 human tumour cell lines. The NCI screening procedures were described in detail by Monks and co-workers (Monks, A et al., Journal of the National Cancer Institute, 1991, 83, 757). Briefly, cell suspensions were diluted according to the particular cell type and the expected target cell density (5000-40,000 cells per well based on cell growth characteristics), and added by pipette (100 μL) into 96-well microtitre plates. The cells were allowed a preincubation period of 24 hours at 37° C. for stabilisation. Dilutions at twice the intended test concentration were added at time zero in 100 μL aliquots to the wells. The test compounds were evaluated at five 10-fold dilutions (10^−4, 10^−5, 10^−6, 10^−7 and 10^−[…]). The test compounds were incubated for 48 hours in 5% CO2 atmosphere and 100% humidity. The cells were then assayed using the sulphorhodamine B assay. A plate reader was used to read the optical densities and a microcomputer processed the readings into LC50 values, which is the dosage required to kill half of the cells.

[8] = test system: RXF 393; test: NCI in vitro cytotoxicity screen; assay type: cell-based; conditions: Homo sapiens, RXF 393, 48 h, read-out: LC50
Method: as §3, §4

[9] = test system: SK-MEL-2; test: NCI in vitro cytotoxicity screen; assay type: cell-based; conditions: Homo sapiens, SK-MEL-2, 48 h, read-out: LC50
Method: as §3, §4

[10] = Homo sapiens, A2780cisR, 96 h, read-out: IC50 A2780cisR, cisplatin-resistant, 96 hours, sulphorhodamine B
[11] = Homo sapiens, A2780, 96 h, read-out: IC50 A2780, 96 hours, sulphorhodamine B
[12] = Homo sapiens, CH1cisR, 96 h, read-out: IC50 CH1cisR, cisplatin-resistant, 96 hours, sulphorhodamine B
[13] = Homo sapiens, CH1, 96 h, read-out: IC50 CH1, 96 hours, sulphorhodamine B
[14] = Homo sapiens, SK-OV-3, 96 h, read-out: IC50 Skov3, 96 hours, sulphorhodamine B

Row | SMILES | IC50 [1, 10] [nM] | IC50 [2, 11] [nM] | IC50 [3, 12] [nM] | IC50 [4, 13] [nM] | IC50 [5, 14] [nM] | further results
1 | COC(=O)CC1=CN2C(=O)c3cc(OC)c(OCCCOc4cc5c(cc4OC)C(=O)N4C=C(CC(=O)OC)C[C@H]4C=N5)cc3N=C[C@@H]2C1 [UP2053 (56)] | 58 | 5.4 | 11 | 11.5 | 100 | 
2 | Cc1ccc2c(c1O)NC(O)C1CC(/C=C/C(N)=O)=CN1C2=O (centres unmarked) [Anthramycin, anthramycin, reference compound] | 160 | 155 | 50 | 62 | 160 | 
3 | C/C=C1\C[C@H]2C=Nc3cc(O)c(OC)cc3C(=O)N2C1 [Tomamycin, tomaymycin] |  |  |  |  |  | Induced ΔTa after incubation at 37° C. for 0 h ([6]; pH 7.00, 0 h): 0.97 °C; Induced ΔTa after incubation at 37° C. for 4 h ([6]; pH 7.00, 4 h): 2.38 °C; Induced ΔTa after incubation at 37° C. for 18 h ([6]; pH 7.00, 18 h): 2.56 °C
4 | COc1cc2c(cc1OCc1ccccc1)N=C[C@@H]1CC(CC#N)=CN1C2=O [UP2074 (10)] | 430 | 155 | 270 | 105 | 520 | 
5 | C/C=C1\C[C@H]2C=Nc3cc(OCc4ccccc4)c(OC)cc3C(=O)N2C1 [UP2100 (207)] | 66 | < 50 | < 50 | < 50 | 81 | 
6 | COc1cccc2c1N=C[C@@H]1CCCN1C2=O [UP2024 (101), (11aS)-9-methoxy-1,2,3,11a-tetrahydro-5H-pyrrolo[2,1-c][1,4]benzodiazepin-5-one] | 1800 | 1400 | 1250 | 1450 | 2350 | 
7 | COc1cc2c(cc1OC)C(=O)N1C=C(c3ccccc3)C[C@H]1C=N2 [UP2095 (181), (11aS)-1,11a-dihydro-7,8-dimethoxy-2-phenyl-5H-pyrrolo[2,1-c][1,4]benzodiazepin-5-one] | < 50 | < 50 | < 50 | < 50 | < 50 | 
8 | COc1ccc(C2=CN3C(=O)c4cc(OC)c(OC)cc4N=C[C@@H]3C2)cc1 [UP2092 (179), (11aS)-1,11a-dihydro-7,8-dimethoxy-2-(4-methoxyphenyl)-5H-pyrrolo[2,1-c][1,4]benzodiazepin-5-one] | 7 | 4 | 8.2 | 1.6 | 9.8 | 
9 | COc1cc2c(cc1OCCC(=O)N1CCc3ccccc31)N=C[C@@H]1CCCN1C2=O [UP2007 (165), 1, (2,3-dihydro-1H-indolyl)-3-(7-methoxy-5-oxy(11as)-2,3,5,11a-tetrahydro-1H-benzo[e]pyrrolo[1,2-a][1,4]diazepin-8-yloxy)-1-propanone] |  |  |  |  |  | IC50 ([1]; read-out: IC50 A2780cisR, cisplatin-resistant, 96 hours, sulphorhodamine B): 4900 nM; IC50 ([2]; read-out: IC50 A2780, 96 hours, sulphorhodamine B): 1550 nM; IC50 ([3]; read-out: IC50 CH1cisR, cisplatin-resistant, 96 hours, sulphorhodamine B): 3000 nM; IC50 ([4]; read-out: IC50 CH1, 96 hours, sulphorhodamine B): 1500 nM; IC50 ([5]; read-out: IC50 Skov3, 96 hours, sulphorhodamine B): 5800 nM
10 | C=CC1=CN2C(=O)c3cc(OC)c(OC)cc3N=C[C@@H]2C1 [UP2089 (177), (11aS)-1,11a-dihydro-7,8-dimethoxy-2-ethenyl-5H-pyrrolo[2,1-c][1,4]benzodiazepin-5-one] | 4.2 | 2.2 | 2.3 | < 2.5 | 5.4 | 
11 | COc1cc2c(c(OC)c1OCc1ccccc1)N=C[C@@H]1CCCN1C2=O [UP2022 (143), 8-Benzyloxy-7,9-dimethoxy-1,2,3,11a-tetrahydropyrrolo[2,1-c][1,4]benzodiazepin-5-one] | 16500 |  | 11000 | 14000 | 33000 | 
12 | COc1cc2c(cc1OCCCNC(=O)OCC1c3ccccc3-c3ccccc31)N=C[C@@H]1CCCN1C2=O [UP2088 (205), (11aS) 8-(N-9-fluorenylmethoxycarbonyl)aminopropyloxy-7-methoxy-1,2,3,11a-tetrahydro-5H-pyrrolo[2,1-c][1,4]benzodiazepin-5-one] |  |  |  |  |  | IC50 ([1]; cisplatin-resistant, 96 hours, sulphorhodamine B, read-out: IC50 A2780cisR): 8500 nM; IC50 ([2]; 96 hours, sulphorhodamine B, read-out: IC50 A2780): 11000 nM; IC50 ([3]; cisplatin-resistant, 96 hours, sulphorhodamine B, read-out: IC50 CH1cisR): 16000 nM; IC50 ([4]; 96 hours, sulphorhodamine B, read-out: IC50 CH1): 12000 nM; IC50 ([5]; 96 hours, sulphorhodamine B, read-out: IC50 Skov3): 14000 nM
13 | COc1cc2c(c(OC)c1OCCCOc1c(OC)cc3c(c1OC)N=C[C@@H]1CCCN1C3=O)N=C[C@@H]1CCCN1C2=O [UP2020 (90)] | 7200 | 10000 | 2800 | 1700 | 1600 | 
14 | COc1cc2c(cc1OCCC(=O)N1CCCCC1)N=C[C@@H]1CCCN1C2=O [UP2006 (163)] | 14500 | 3200 | 7900 | 4900 | 23500 | 
15 | COc1ccc(-c2ccc3c(c2)C(=O)N2CCC[C@H]2C=N3)cc1 [UP2027 (138), (11aS)-7-(4′-Methoxyphenyl)-1,2,3,11a-tetrahydro-5H-pyrrolo[2,1-c]-[1,4]benzodiazepin-5-one] |  |  |  |  |  | CC50 [7]: 8 µM; CC50 [8]: 6.6 µM; CC50 [9]: 9.5 µM; IC50 ([1]; Homo sapiens, A2780cisR, cisplatin-resistant, 96 hours, sulphorhodamine B, read-out: IC50 A2780cisR): 1550 nM; IC50 ([2]; Homo sapiens, A2780, 96 hours, sulphorhodamine B, read-out: IC50 A2780): 560 nM; IC50 ([3]; Homo sapiens, CH1cisR, cisplatin-resistant, 96 hours, sulphorhodamine B, read-out: IC50 CH1cisR): 1150 nM; IC50 ([4]; Homo sapiens, CH1, 96 hours, sulphorhodamine B, read-out: IC50 CH1): 1350 nM; IC50 ([5]; Homo sapiens, SK-OV-3, 96 hours, sulphorhodamine B, read-out: IC50 Skov3): 1700 nM
16 | COc1cc2c(c(OC)c1OC)N=C[C@@H]1CCCN1C2=O [UP2086 (120), 7,8,9-Trimethoxy-1,2,3,11a-tetrahydro-5H-pyrrolo[2,1-c][1,4]benzodiazepin-5-one] | 450 | 840 | 2200 | 1600 | 2500 | 
17 | COc1cc2c(c(OC)c1O)N=CC1CC(=O)CN1C2 (centres unmarked) [UP2021 (130), 7,9-dimethoxy-8-Hydroxy-1,2,3,11a-tetrahydropyrrolo[2,1-c][1,4]benzodiazepin-2-one] | > 100000 | > 100000 | 47000 | 51000 | > 100000 | 
18 | COc1cc2c(cc1OC)C(=O)N1CCC[C@H]1C=N2 [UP2025 (106), (11aS)-7,8-dimethoxy-1,2,3,11a-tetrahydro-5H-pyrrolo [2,1-c][1,4]benzodiazepin-5-one] |  | 64 | 110 | 82 | 1700 | 
